Assay results taken from ChEMBL document CHEMBL3045804, “Synthesis and Herbicidal Activity of 2-Benzylamino-4-methyl-6-trifluoromethyl-1, 3, 5-triazune Derivatives” (J Pestic Sci, 1998).

Columns and labels:
Format in all cases: functional
Rotala indica [1] = experiment: Herbicidal activity against Rotala indica assessed as killing at 800 g/10 acre measured after 3 weeks by pre-emergence/paddy application test
[2] = test system: Schoenoplectiella juncoides; experiment: Herbicidal activity against Schoenoplectiella juncoides assessed as killing at 800 g/10 acre measured after 3 weeks by pre-emergence/paddy application test
Pontederia vaginalis [3] = experiment: Herbicidal activity against Monochoria vaginalis assessed as killing at 800 g/10 acre measured after 3 weeks by pre-emergence/paddy application test
Echinochloa oryzicola [4] = experiment: Herbicidal activity against Echinochloa oryzicola assessed as killing at 800 g/10 acre measured after 3 weeks by pre-emergence/paddy application test
Chenopodium album [5] = experiment: Herbicidal activity against Chenopodium album assessed as killing at 800 g/10 acre measured after 3 weeks by pre-emergence/field application test
Stellaria media [6] = experiment: Herbicidal activity against Stellaria media assessed as killing at 800 g/10 acre measured after 3 weeks by pre-emergence/field application test
Digitaria ciliaris [7] = experiment: Herbicidal activity against Digitaria ciliaris assessed as killing at 800 g/10 acre measured after 3 weeks by pre-emergence/field application test
Echinochloa crus-galli [8] = experiment: Herbicidal activity against Echinochloa crus-galli (barnyard grass) assessed as killing at 800 g/10 acre measured after 3 weeks by pre-emergence/field application test
Chenopodium album [9] = experiment: Herbicidal activity against Chenopodium album assessed as killing at 400 g/10 acre measured after 3 weeks by post-emergence/foliar application test
Stellaria media [10] = experiment: Herbicidal activity against Stellaria media assessed as killing at 400 g/10 acre measured after 3 weeks by post-emergence/foliar application test
Digitaria ciliaris [11] = experiment: Herbicidal activity against Digitaria ciliaris assessed as killing at 400 g/10 acre measured after 3 weeks by post-emergence/foliar application test
Echinochloa crus-galli [12] = experiment: Herbicidal activity against Echinochloa crus-galli (barnyard grass) assessed as killing at 400 g/10 acre measured after 3 weeks by post-emergence/foliar application test
[13] = test system: Schoenoplectiella juncoides; experiment: Herbicidal activity against Schoenoplectiella juncoides assessed as killing at 100 g/10 acre measured after 3 weeks by pre-emergence/paddy application test
Pontederia vaginalis [14] = experiment: Herbicidal activity against Monochoria vaginalis assessed as killing at 100 g/10 acre measured after 3 weeks by pre-emergence/paddy application test
Echinochloa oryzicola [15] = experiment: Herbicidal activity against Echinochloa oryzicola assessed as killing at 100 g/10 acre measured after 3 weeks by pre-emergence/paddy application test
Stellaria media [16] = experiment: Herbicidal activity against Stellaria media assessed as killing at 100 g/10 acre measured after 3 weeks by pre-emergence/field application test
Digitaria ciliaris [17] = experiment: Herbicidal activity against Digitaria ciliaris assessed as killing at 100 g/10 acre measured after 3 weeks by pre-emergence/field application test
Echinochloa crus-galli [18] = experiment: Herbicidal activity against Echinochloa crus-galli (barnyard grass) assessed as killing at 100 g/10 acre measured after 3 weeks by pre-emergence/field application test
Rotala indica [19] = experiment: Herbicidal activity against Rotala indica assessed as killing at 100 g/10 acre measured after 3 weeks by pre-emergence/paddy application test
Chenopodium album [20] = experiment: Herbicidal activity against Chenopodium album assessed as killing at 100 g/10 acre measured after 3 weeks by post-emergence/foliar application test
Stellaria media [21] = experiment: Herbicidal activity against Stellaria media assessed as killing at 100 g/10 acre measured after 3 weeks by post-emergence/foliar application test
Digitaria ciliaris [22] = experiment: Herbicidal activity against Digitaria ciliaris assessed as killing at 100 g/10 acre measured after 3 weeks by post-emergence/foliar application test
Echinochloa crus-galli [23] = experiment: Herbicidal activity against Echinochloa crus-galli (barnyard grass) assessed as killing at 100 g/10 acre measured after 3 weeks by post-emergence/foliar application test
Chenopodium album [24] = experiment: Herbicidal activity against Chenopodium album assessed as killing at 100 g/10 acre measured after 3 weeks by pre-emergence/field application test

Structure (SMILES)	Activity (Rotala indica [1]) [%]	Activity [2] [%]	Activity (Pontederia vaginalis [3]) [%]	Activity (Echinochloa oryzicola [4]) [%]	Activity (Chenopodium album [5]) [%]	Activity (Stellaria media [6]) [%]	Activity (Digitaria ciliaris [7]) [%]	Activity (Echinochloa crus-galli [8]) [%]	Activity (Chenopodium album [9]) [%]	Activity (Digitaria ciliaris [11]) [%]	Activity (Echinochloa crus-galli [12]) [%]	further results
CC(C)c1nc(NCc2ccccc2)nc(C(F)(F)F)n1	91	100	100	100	76	26	76	76	0	0	0	Activity (Stellaria media [10]): 0%
Cc1nc(NCc2ccc(Cl)cc2)nc(C(F)(F)F)n1												Activity [13]: 76%; Activity (Pontederia vaginalis [14]): 100%; Activity (Echinochloa oryzicola [15]): 76%; Activity (Stellaria media [16]): 91%; Activity (Digitaria ciliaris [17]): 91%; Activity (Echinochloa crus-galli [18]): 51%; Activity (Rotala indica [19]): 91%; Activity (Chenopodium album [20]): 100%; Activity (Stellaria media [21]): 100%; Activity (Digitaria ciliaris [22]): 76%; Activity (Echinochloa crus-galli [23]): 26%; Activity (Chenopodium album [24]): 100%
Cc1nc(NCCc2ccccc2)nc(C(F)(F)F)n1	91	26	76	26	91		76	51	91	0	0	
Cc1nc(C)nc(NCc2ccccc2)n1	1	0	100	51	0	0	0	0	51	1	1	
CCNc1nc(Cl)nc(NCC)n1 [SIMAZINE]												Activity (Stellaria media [16]): 91%; Activity (Digitaria ciliaris [17]): 51%; Activity (Echinochloa crus-galli [18]): 26%; Activity (Chenopodium album [24]): 91%
Cc1nc(NCc2ccccc2)nc(C(Cl)(Cl)Cl)n1	91	51	100	76	0	0	0	0	0	0	0	Activity (Stellaria media [10]): 0%
CCNc1nc(Cl)nc(NC(C)C)n1 [ATRAZINE]												Activity (Chenopodium album [20]): 100%; Activity (Stellaria media [21]): 100%; Activity (Digitaria ciliaris [22]): 0%; Activity (Echinochloa crus-galli [23]): 26%
CCc1nc(NCc2ccccc2)nc(C(F)(F)F)n1	91	100	100	91		100	100	51	51	1	1	
c1ccc(CNc2ncncn2)cc1	0	0	0	0	0	0	0	0	0	0	0	Activity (Stellaria media [10]): 0%
CCc1nc(C)nc(NCc2ccccc2)n1	51	1	51	76	51		0	0				
Cc1nc(NCc2cccc(Cl)c2)nc(C(F)(F)F)n1												Activity [13]: 51%; Activity (Pontederia vaginalis [14]): 51%; Activity (Echinochloa oryzicola [15]): 51%; Activity (Digitaria ciliaris [17]): 51%; Activity (Echinochloa crus-galli [18]): 1%; Activity (Rotala indica [19]): 100%; Activity (Chenopodium album [20]): 100%; Activity (Stellaria media [21]): 100%; Activity (Digitaria ciliaris [22]): 91%; Activity (Echinochloa crus-galli [23]): 51%; Activity (Chenopodium album [24]): 76%
